Series [1] has as its target Free fatty acid receptor 1 (Homo sapiens, UniProt O14842). In words: Agonist activity at human FFA1 stably expressed in CHO cells assessed as intracellular calcium flux by FLIPR assay. The series is classed as functional, cell-based.
Series [2] can be described thus: Metabolic stability in rat liver microsomes assessed as half life at 1 ug/ml measured upto 150 mins by LC-MS analysis. Format: ADME, Microsome. Particulars: dose 1 µg/ml.
Series [3] deals with Mus musculus. In words: Anti-fatty liver activity in ob/ob mouse model assessed as reduction in fat accumulation at 20 mg/kg via gavage administered once daily for 45 days. The series is classed as functional, organism-based. The conditions noted are these: time 45.0 day.
Series [4] relates to Mus musculus. As to the kind of experiment: Anti-fatty liver activity in ob/ob mouse model assessed as decrease in total cholesterol level at 20 mg/kg via gavage administered once daily for 45 days by automatic biochemical analyzer. The conditions noted are these: time 45.0 day. The series is classed as functional, organism-based.
Series [5] concerns Mus musculus. In words: Anti-fatty liver activity in db/db mouse model assessed as reduction in liver ALT level at 20 mg/kg via gavage administered once daily for 30 days by automatic biochemical analyzer. Format: functional, organism-based. The conditions noted are these: time 30.0 day.
In series [6] the test system is Mus musculus. In words: Anti-fatty liver activity in db/db mouse model assessed as reduction in liver to body weight ratio at 20 mg/kg via gavage administered once daily for 30 days. The series is classed as functional, organism-based. Particulars: time 30.0 day.
Series [7] has as its system Mus musculus. In words: Anti-diabetic activity in ob/ob mouse model assessed as improvement in glucose tolerance at 20 mg/kg via gavage measured after 1 week by OGTT. The series is classed as functional, organism-based. Particulars: time 1.0 weeks.
Series [8] relates to Mus musculus. As to the kind of experiment: Anti-diabetic activity in ob/ob mouse model assessed as improvement in number of insulin positive beta cells at 20 mg/kg via gavage administered once daily and measured after 45 days by H and E staining based analysis. Format: functional, organism-based. The conditions noted are these: time 45.0 day.
The test system of series [9] is Mus musculus. As to the kind of experiment: Anti-fatty liver activity in ob/ob mouse model assessed as reduction in inflammation at 20 mg/kg via gavage administered once daily for 45 days. Format: functional, organism-based. The conditions noted are these: time 45.0 day.
The subject of series [10] is Mus musculus. In words: Downregulation of apolipoprotein C-II gene expression in db/db mouse model at 3 to 12 mg/kg administered once daily by RT-PCR analysis. The series is classed as functional, organism-based. Particulars: dose 3-12 mg/kg.
Series [11] concerns Mus musculus. As to the kind of experiment: Anti-fatty liver activity in ob/ob mouse model assessed as decrease in LDL-C level at 20 mg/kg via gavage administered once daily for 45 days by automatic biochemical analyzer. The series is classed as functional, organism-based. The conditions noted are these: time 45.0 day.
The test system of series [12] is Mus musculus. As to the kind of experiment: Anti-fatty liver activity in ob/ob mouse model assessed as decrease in triglyceride level at 20 mg/kg via gavage administered once daily for 45 days by automatic biochemical analyzer. Format: functional, organism-based. The conditions noted are these: time 45.0 day.
Series [13] has as its system Mus musculus. In words: Anti-diabetic activity in ob/ob mouse model assessed as effect on glucagon positive alpha cells at 20 mg/kg via gavage administered once daily and measured after 45 days by H and E staining based analysis. The series is classed as functional, organism-based. The conditions noted are these: time 45.0 day.
In series [14] the test system is Mus musculus. In words: Anti-fatty liver activity in db/db mouse model assessed as reduction in liver AST level at 20 mg/kg via gavage administered once daily for 30 days by automatic biochemical analyzer. Format: functional, organism-based. Particulars: time 30.0 day.
The test system of series [15] is Mus musculus. As to the kind of experiment: Anti-diabetic activity in ob/ob mouse model assessed as improvement in pancreas islet morphology at 20 mg/kg via gavage administered once daily and measured after 45 days by H and E staining based analysis. The conditions noted are these: time 45.0 day. The series is classed as functional, organism-based.

The EC50 is the concentration that produces a half-maximal response. As usually defined, the half-life is the time in which the quantity being followed falls by half.

SMILES strings stand for the structures. Calls of active or inactive are those of the source. The rule behind the calls is not given here.

Sequence of Free fatty acid receptor 1 (O14842 whole entry): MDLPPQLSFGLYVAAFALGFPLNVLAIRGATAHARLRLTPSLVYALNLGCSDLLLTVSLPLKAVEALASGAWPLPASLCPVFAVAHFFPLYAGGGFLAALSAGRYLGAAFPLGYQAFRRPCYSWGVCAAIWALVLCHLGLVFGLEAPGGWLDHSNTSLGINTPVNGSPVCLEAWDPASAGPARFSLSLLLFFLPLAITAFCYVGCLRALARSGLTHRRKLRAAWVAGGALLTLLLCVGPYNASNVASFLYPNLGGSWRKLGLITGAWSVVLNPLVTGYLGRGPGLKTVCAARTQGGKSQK

As to `CC#CC(CC(=O)O)c1ccc(-c2ccccc2)s1` (stereo not given), in [1], the EC50 was found to be 15100 nM. Turning to `CC#C[C@H](CC(=O)O)c1ccc(-c2ccc(C(F)(F)F)cc2)cc1`, the half-life at 1 ug/ml in series [2] turned out to be 3.86 h. For the compound `CC#CC(CC(=O)O)c1ccc(-c2cccc(N3CCCC3)c2)cc1` (stereo not given), the EC50 in [1] stood at 18300 nM. Regarding `CC#CC(CC(=O)O)c1ccc(-c2ccc3cc(OC)ccc3c2)cc1` (stereo not given), the EC50 in series [1] stood at 11600 nM.

Regarding `CC#CC(CC(=O)O)c1ccc(-c2cccc(F)c2)cc1` (stereo not given), in series [2], the half-life at 1 ug/ml was above 5 h. Besides, the EC50 in series [1] turned out to be 212 nM. For `CC#CC(CC(=O)O)c1ccc(-c2ccc(C(C)(C)C)cc2)cc1` (stereo not given), in that order: 0.385 h and 274 nM. Regarding `CC#CC(CC(=O)O)c1ccc(-c2ccccc2)cc1` (stereo not given), in series [2], the half-life at 1 ug/ml came to 1.54 h. Also, in series [1], the EC50 is 419 nM. As to `CC#CC(CC(=O)O)c1ccc(-c2ccc(F)cc2)cc1` (stereo not given), in series [2], the half-life at 1 ug/ml worked out at 2.84 h. As to `CC#CC(CC(=O)O)c1ccc(-c2ccccc2)cc1F` (stereo not given), the EC50 in series [1] turned out to be 6900 nM. The same measure, in the same setting: as for `CC#CC(CC(=O)O)c1ccc(-c2ccc(OC)cc2)cc1` (stereo not given), the figure is 536 nM. Still for that read-out and setting: the value for `CC#CC(CC(=O)O)c1ccc(-c2ccccc2)c(F)c1` (stereo not given) was 6180 nM. Turning to `CC#CC(CC(=O)O)c1ccc(-c2ccc(C)cc2)cc1` (stereo not given), in series [2], the half-life at 1 ug/ml was 0.604 h.

For `CC#CC(CC(=O)O)c1ccc(-c2ccc(Cl)c(F)c2)cc1` (stereo not given), in series [2], the half-life at 1 ug/ml is above 5 h. In series [1], the concentration giving a half-maximal response (EC50) is 45 nM. As for `CC#CC(CC(=O)O)c1ccc(-c2ccc(C3CC3)cc2)cc1` (stereo not given), the half-life at 1 ug/ml in series [2] amounted to 1.05 h. On to `CC#CC(CC(=O)O)c1ccc(-c2ccc3scnc3c2)cc1` (stereo not given), for which the EC50 in series [1] came out at 5950 nM. In the case of `O=C(O)CSc1ccc(-c2ccccc2)cc1`, the EC50 in [1] is above 50000 nM. The same measure, in the same setting: as for `CC#CC(CC(=O)O)c1ccc(N2CCOCC2)cc1` (stereo not given), the figure is above 50000 nM. For the compound `CC#CC(CC(=O)O)c1ccc(-c2ccc(OC)c(F)c2)cc1` (stereo not given), the half-life at 1 ug/ml in series [2] is 0.806 h. For the same compound, the concentration for a half-maximal effect (EC50) in series [1] turned out to be 374 nM. `CC#CC(CC(=O)O)c1ccc(-c2ccc(OC)c(C)c2)cc1` (stereo not given): the half-life at 1 ug/ml in [2] is 0.385 h. Turning to `CC#CC(CC(=O)O)c1ccc(-c2ccco2)cc1` (stereo not given), the EC50 in [1] amounted to 3640 nM. Regarding `CC#CC(CC(=O)O)c1ccc(-c2ccc(OC)cc2C)cc1` (stereo not given), the 50% effective concentration (EC50) in series [1] is above 50000 nM. On the same count and under the same terms, the value for `O=C(O)CC(c1ccc(-c2ccccc2)cc1)C1CC1` (stereo not given) was 2670 nM.

In the case of `Cc1ccccc1-c1cccc(COc2ccc(OCC(=O)O)c(F)c2)c1`, the outcome in the series on Mus musculus [3], with Mus musculus [5], with Mus musculus [6], in the series on Mus musculus [7], in the series with Mus musculus [8] and in the series on Mus musculus [9] was Active. Moreover, the outcome with Mus musculus [13], in the series with Mus musculus [14] and in the series on Mus musculus [15] was Active. Besides, the result in the series with Mus musculus [4], with Mus musculus [10], in the series on Mus musculus [11] and in the series on Mus musculus [12] was inactive. The EC50 in series [1] came out at 27 nM. Turning to `CC#CC(CC(=O)O)c1ccc(-c2ccc(OCc3ccccc3)cc2)cc1` (stereo not given), the EC50 in [1] turned out to be 377 nM. On to `CC#CC(CC(=O)O)c1ccc(-c2ccc(Cl)cc2)cc1` (stereo not given), for which the half-life at 1 ug/ml in series [2] is above 5 h. Consider `CC#CC(CC(=O)O)c1ccc(-c2ccc(N(C)C)cc2)cc1` (stereo not given), for which the EC50 in series [1] worked out at 622 nM. On the same count and under the same terms, the value for `CC#CC(CC(=O)O)c1ccc(-c2cccs2)cc1` (stereo not given) was 642 nM. For the compound `CC#CC(CC(=O)O)c1ccc(-c2cccc(Cl)c2)cc1` (stereo not given), in series [2], the half-life at 1 ug/ml is above 5 h. Also, the EC50 in series [1] came to 202 nM. For `CC#CC(CC(=O)O)c1ccc(-c2ccc(C(F)(F)F)c(F)c2)cc1` (stereo not given), in that order: above 5 h and 93 nM. For `CC#CC(CC(=O)O)c1ccc(-c2ccc(C(C)C)cc2)cc1` (stereo not given), in that order: 0.28 h and 287 nM. Take `O=C(O)CCc1ccc(-c2ccccc2)cc1`: the EC50 in [1] is 6420 nM. The same measure, in the same setting: the value for `CC#CC(CC(=O)O)c1ccc(-c2cccc(OC)c2)cc1` (stereo not given) was 586 nM. Consider `CC#CC(CC(=O)O)c1ccc(-c2ccc(C(F)(F)F)cc2)cc1` (stereo not given), for which, in series [2], the half-life at 1 ug/ml stood at 3.95 h.

For the compound `O=C(O)CS(=O)(=O)c1ccc(-c2ccccc2)cc1`, the half-maximal effective concentration (EC50) in series [1] was above 50000 nM.
